Results taken from publication PMC4278221, “Territrem and Butyrolactone Derivatives from a Marine-Derived Fungus Aspergillus Terreus” (Marine Drugs, 2014).
In brackets after ≈: the same amount, converted by molar mass. Where two headings read alike, the source gives them in different places.

How the values were obtained:
HSV-1 = test: Anti-HSV-1 plaque reduction assay in Vero cell monolayers; format: cell-based; settings: 72 h, read-out: Anti-HSV-1 IC50
Experimental: The antiviral activities of 1–17 towards HSV-1 were evaluated using plaque reduction assay for the first time.
(§1) Cytotoxic activity was evaluated using Vero cell lines by the MTT method. Anti-HSV-1 activity was determined by plaque assay using monolayer cultures of Vero cells in 24-well culture plates (Corning, New York, NY, USA). Virus suspension containing HSV-1 (30 plaque forming units (PFU)/well) was added to the cell wells and incubated at 37 °C with 5% CO2 for 2 h. The virus inoculum was then removed and overlay medium (maintenance medium containing 1% methylcellulose and various concentrations of tested compound) was added to each well. After another 72 h of incubation, the cell monolayers were fixed with 10% formalin and stained with 1% crystal violet. Plaques were counted and the percentage of inhibition was calculated according to literature. The concentration reducing plaque numbers by 50% was calculated by regression analysis of the dose–response curves generated from the plaque assay and was defined as 50% inhibitory concentration (IC50).

Vero cell line = test: Cytotoxic activity against Vero cell line by MTT method; format: cell-based; settings: non-cytotoxic concentration (TC0)
Experimental: as §1

[1] = tested on: barnacle Balanus amphitrite larvae; test: Barnacle Balanus amphitrite larval settlement bioassay (antifouling); settings: for EC50: Amphibalanus amphitrite, 24 h, read-out: Antifouling Against B. Amphitrite EC50; for LC50/EC50 values: antifouling activity at nontoxic concentrations, B. amphitrite larvae
Experimental: Larval settlement bioassays were performed using sterile 24-well polystyrene plates. Tested samples were dissolved in DMSO to a concentration of 50 μg·mL^−1 for preliminary bioassay. […] About 20 competent larvae were added to each well in 1 mL of the test solution. The experiment was repeated twice with four replicateseach time. Wells containing only FSW with DMSO served as the controls. The plates were incubated at 27 °C for 24 h. The percentage of larval settlement was determined by counting the settled, live individuals under a dissecting microscope and expressing the result as a proportion of the total number of larvae in the well. Statistical calculations were performed with the SPSS software package.

AChE = target: T1, AChE (Homo sapiens, UniProt P22303); test: biochemical
T1 construct: purchased Sigma
T1 sequence (P22303 32-614): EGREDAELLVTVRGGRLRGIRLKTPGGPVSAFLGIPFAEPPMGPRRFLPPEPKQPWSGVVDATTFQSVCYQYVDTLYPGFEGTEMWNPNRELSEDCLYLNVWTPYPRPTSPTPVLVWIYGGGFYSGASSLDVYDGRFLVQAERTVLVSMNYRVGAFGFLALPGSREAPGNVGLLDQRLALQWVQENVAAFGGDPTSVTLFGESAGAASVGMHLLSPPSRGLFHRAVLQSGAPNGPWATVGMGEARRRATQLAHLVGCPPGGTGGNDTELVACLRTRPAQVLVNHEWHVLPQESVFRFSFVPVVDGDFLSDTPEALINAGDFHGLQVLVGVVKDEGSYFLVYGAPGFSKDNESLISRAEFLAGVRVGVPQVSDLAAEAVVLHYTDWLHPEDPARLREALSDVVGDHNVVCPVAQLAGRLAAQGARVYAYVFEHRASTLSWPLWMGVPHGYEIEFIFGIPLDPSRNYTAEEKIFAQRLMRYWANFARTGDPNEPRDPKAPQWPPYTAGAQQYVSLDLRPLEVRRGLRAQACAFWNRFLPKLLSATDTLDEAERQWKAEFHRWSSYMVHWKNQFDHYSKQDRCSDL
Experimental: The inhibitory activities against AChE of compounds were investigated in vitro using the modified Ellman method. Briefly, the reaction mixture containing 20 μL of a different concentrations of the test compunds dissolved in DMSO solution, 450 μL of reaction buffer (0.01 M phosphate buffer, pH 7.0), 10 μL of 0.08-0.10 units/mL AChE (Sigma, one unit hydrolyzes […] of acetylcholineto choline and acetate per min at pH 7.0, 37 °C) and 10 μL of 0.01 M DTNB (Sigma, St. Louis, MO, USA) were filled in a microwell of 24-well polystyrene plate and incubated for 30 min at 37 °C. After preincubation, The reaction was started by adding 20 μL of 0.01 M ATCh (Sigma, St. Louis, MO, USA) solution in 0.01 M phosphate buffer (pH 7.0). Colorimetric measurements (412 nm) were performed on a enspire multimode microplate reader (varioskan flash, Thermo, Waltham, MA, USA). For determining the blank value, the 20 μL of test compound solution was instead of 20 μL of DMSO solution. Each concentration was analyzed in triplicate. […] IC50 values were determined graphically from the regression analysis of concentration-inhibition curves. The IC50 values are the mean ± standard deviations of three independent experiments.

[2] = Human alphaherpesvirus 1, plaque reduction assay in Vero cells, under non-cytotoxic concentrations (TC0)

Row | Structure (SMILES) | IC50 (HSV-1; [2]) [µg/mL] | Cytotoxicity Against Vero TC0 (Vero cell line) [µg/mL] | EC50 [1] [µg/mL] | LC50/EC50 values [1] [µg/mL] | IC50 (AChE) [µM] | other results
1 | COC(=O)[C@]1(Cc2ccc3c(c2)CCC(C)(C)O3)OC(=O)C(O)=C1c1ccc(O)cc1 [Compound 12, aspernolide A] | 28.9 ± 1.8 (≈ 68.1 µM) | 100 | 7.4 ± 0.6 (≈ 17.4 µM) | > 100 |  | 
2 | Nc1nc2c(ncn2COCCO)c(=O)[nH]1 [Acyclovir, reference compound] | 34.5 ± 0.7 (≈ 153 µM) | >1000 |  |  |  | 
3 | COc1cc(-c2cc3c(c(=O)o2)C[C@]2(O)[C@@]4(C)C(=O)C=CC(C)(C)[C@]4(O)CC[C@@]2(C)O3)ccc1O [Compound 2, territrem E] |  | 200 |  |  |  | IC50 (AChE; modified Ellman method, pH 7.0, 37 °C, mean ± SD of three independent experiments, read-out: Anti-AChE IC50): 0.0045 ± 0.0006 µM
4 | COC(=O)[C@]1(Cc2ccc3c(c2)C[C@H](O)C(C)(C)O3)OC(=O)C(O)=C1c1ccc(O)cc1 [Compound 11, butyrolactone V] |  |  | 22.1 ± 0.8 (≈ 50.2 µM) | > 100 |  | 
5 | COc1cc(-c2cc3c(c(=O)o2)C[C@]2(O)[C@@]4(C)C(=O)C=CC(C)(C)[C@]4(O)CC[C@@]2(C)O3)cc(OC)c1O [Compound 5, territrem C] |  | >25 |  |  | 0.0201 ± 0.0033 | 
6 | COc1ccc(-c2cc3c(c(=O)o2)C[C@]2(O)[C@@]4(C)CCC(=O)C(C)(C)[C@]4(O)CC[C@@]2(C)O3)cc1 [Compound 8, terreulactone C] |  | >25 |  |  | 0.05 ± 0.0015 | 
7 | COC1(Cc2ccc(O)cc2)OC(=O)C(O)=C1c1ccc(O)cc1 (stereo not shown) [Compound 10, isobutyrolactone II] | 21.8 ± 1.8 (≈ 66.4 µM) | 200 |  |  |  | 
8 | COc1ccc(-c2cc3c(c(=O)o2)C[C@]2(O)[C@@]4(C)C(=O)C=CC(C)(C)[C@]4(O)CC[C@@]2(C)O3)cc1OC [Compound 6, arisugacin A] |  | 100 |  |  | 0.0119 ± 0.0021 | IC50 (HSV-1; Human alphaherpesvirus 1, Vero): 6.34 ± 0.4 µg/mL (≈ 12.8 µM)
9 | COc1cc(-c2cc3c(c(=O)o2)C[C@]2(O)[C@@]4(C)C(=O)C=CC(C)(C)[C@]4(O)CC[C@@]2(C)O3)cc(OC)c1OC [Compound 4, territrem B] |  | 25 |  |  | 0.0042 ± 0.0006 | 
10 | COc1cc(-c2cc3c(c(=O)o2)C[C@]2(O)[C@@]4(C)C(=O)C=CC(C)(C)[C@]4(O)CC[C@@]2(C)O3)cc(O)c1OC [Compound 1, territrem D] |  | 25 | 12.9 ± 0.5 (≈ 25.2 µM) | > 100 | 0.0042 ± 0.0006 | 
11 | COc1ccc(-c2cc3c(c(=O)o2)C[C@H]2[C@@](C)(CC[C@@]4(O)C(C)(C)OC(=O)CC[C@]24C)O3)cc1 [Compound 3, 11a-dehydroxyisoterreulactone A] | 16.4 ± 0.6 (≈ 35 µM) | 200 |  |  |  | 
12 | COC(=O)[C@]1(Cc2ccc(O)c(CCC(C)(C)O)c2)OC(=O)C(O)=C1c1ccc(O)cc1 [Compound 15, aspernolide B] |  |  | 16.1 ± 0.6 (≈ 36.4 µM) | > 100 |  | 
13 | COc1ccc(-c2cc3c(c(=O)o2)C[C@]2(O)[C@@]4(C)[C@@H](O)C[C@@H](OC(C)=O)C(C)(C)[C@]4(O)CC[C@@]2(C)O3)cc1 [Compound 7, arisugacin H] |  | 100 |  |  |  | IC50 (AChE; modified Ellman method, value printed in μM in text, read-out: Anti-AChE IC50): 5.7 ± 0.8 µM
